Data on five compounds can be found in patent US7994123B2, “Hybrid proteins with ErbB4 extracellular domain and neuregulin heparin-binding domain for targeting” (Wayne State University, priority 2004, dated 2011).

For experiment [1], the system named is erbB phosphorylation (p185) in L6 muscle cells. Description: NRG1-induced erbB phosphorylation after reducing endogenous HSPG sulfation. The format is cell-based. The note with it: chlorate 48 hours. The procedure: Cell Cultures and Western Blots for p185 phosphorylation—L6 Cells were used to quantify erbB receptor phosphotyrosine (p185) as described (WO 03/012045; Li & Loeb, supra). Cells were plated at 50,000 cells/well and grown for 8 days. Chlorate was filter sterilized and incubated with L6 cells for 2 days prior to the assay. Inhibition assays of p185 were performed by pre-incubating 75 pM of IgEGF NRG1 and various concentrations of the heparins at room temp for 20 minutes. 150 μL of this mixture was then applied to 8 day-old L6 cells for 45 minutes at 37° C. in […]. The medium was aspirated, and the cells were solubilized in 50 μL sample buffer and boiled for 5 minutes as described previously (WO 03/012045; Li & Loeb, supra) 15 μL of this was resolved on a 5% denaturing polyacrylamide gel. Phosphorylated forms of the erbB receptors (p185) were detected by western blot analysis using the phosphotyrosine monoclonal antibody 4G10 (Upstate) and then verified and quantified by reprobing with a mixture of antibodies against erbB2 (Neomarkers Ab-17) and erbB3 (Neomarkers Ab-6). Quantitation was performed by determining the ratio of p185/(erbB2+erbB3) using Metamorph Imaging System (Universal Imaging Corp) on non-saturated images as described (Esper, R M & Loeb, J A (2004) J Neurosci 24:6218-27) […]

In experiment [2] the test system is NRG1-induced erbB receptor phosphorylation (p185) in L6 cells. As to the kind of experiment: Inhibition of NRG1-induced p185 by heparins in L6 cells. The format is cell-based. The note with it: for inhibition of NRG1-induced erbB receptor phosphorylation (p185): 75 pM IgEGF NRG1 pre-incubated with heparin 20 minutes, L6 cells 45 minutes. Here is the method:
Cell Cultures and Western Blots for p185 phosphorylation—L6 Cells were used to quantify erbB receptor phosphotyrosine (p185) as described (WO 03/012045; Li & Loeb, supra). Cells were plated at 50,000 cells/well and grown for 8 days. Chlorate was filter sterilized and incubated with L6 cells for 2 days prior to the assay. Inhibition assays of p185 were performed by pre-incubating 75 pM of IgEGF NRG1 and various concentrations of the heparins at room temp for 20 minutes. 150 μL of this mixture was then applied to 8 day-old L6 cells for 45 minutes at 37° C. in […]. The medium was aspirated, and the cells were solubilized in 50 μL sample buffer and boiled for 5 minutes as described previously (WO 03/012045; Li & Loeb, supra) 15 μL of this was resolved on a 5% denaturing polyacrylamide gel. Phosphorylated forms of the erbB receptors (p185) were detected by western blot analysis using the phosphotyrosine monoclonal antibody 4G10 (Upstate) and then verified and quantified by reprobing with a mixture of antibodies against erbB2 (Neomarkers Ab-17) and erbB3 (Neomarkers Ab-6). Quantitation was performed by determining the ratio of p185/(erbB2+erbB3) using Metamorph Imaging System (Universal Imaging Corp) on non-saturated images as described (Esper, R M & Loeb, J A (2004) J Neurosci 24:6218-27)

The target in a further experiment is T1, NRG1 (Homo sapiens, UniProt Q02297).
T1 construct: the intact IgEGF form of NRG1 corresponds to amino acids 14-246; purchased R&D (Minneapolis Minn.)
T1 sequence (Q02297 14-246 isoform Q02297-6): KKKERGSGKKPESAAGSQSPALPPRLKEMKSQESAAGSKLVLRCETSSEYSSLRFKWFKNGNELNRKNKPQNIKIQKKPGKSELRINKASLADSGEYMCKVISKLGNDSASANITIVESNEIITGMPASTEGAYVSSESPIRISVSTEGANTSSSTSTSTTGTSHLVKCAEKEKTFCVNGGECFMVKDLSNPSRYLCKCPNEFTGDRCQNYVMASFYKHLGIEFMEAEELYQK
As to the kind of experiment: Gel mobility shift assay (GMSA). The format is binding. The following applies: 35 ng NRG1, 20 minutes; heparins at 0, 1, 10, 100 μg/ml. Here is the method:
Gel Mobility Shift Assay (GMSA)—NRG1 alone, or NRG1 plus various heparins at various concentrations were incubated with binding buffer (2.7 mM KCl, 4.3 mM Na2HPO4, 10 mM MgCl2, 1.4 mM KH2PO4, 12% glycerol, 1 mM DTT.) for 20 minutes and run on a 6% (29:1 acrylamide:bis) non-denaturing gel (10 mM Tris (pH 7.4), 1 mM EDTA) for 20 minutes at 200 V as described (Wu, Z L et al. (2002) FASEB J 16, 539-45; Wu, Z L et al. (2003) J Biol Chem 278:17121-29). […] However, band resolution was sharper at pH 8.0 and was therefore used for our studies here. Protein was transferred to a polyvinylidene fluoride membrane (Millipore corp.) for 1 hr at 100V. NRG1 bands were detected by western blot analysis using a polyclonal rabbit antiserum (AD03) developed against the IgEGF polypeptide (Assay Designs Inc.). The filters were then probed with a goat anti-rabbit antibody coupled to peroxidase (Chemicon), exposed to X-blue film (Eastman Kodak Co.) after treatment with chemiluminescence reagents, and bands were quantified as above.

Take `[O-][Cl+2]([O-])O` [chlorate, Sodium chlorate]: the “reduction of receptor phosphorylation, EGF form” value in experiment [1] (EGF form lacking the heparin-binding domain) was “no reduction”. In addition, in experiment [1] (full-length heparin-binding NRG1 (IgEGF)), the “reduction of receptor phosphorylation, IgEGF NRG1” value was found to be 53%.
In the case of De-2O sulfated heparin, in experiment [2], the “inhibition of NRG1-induced erbB receptor phosphorylation (p185)” value (from here on “inhibition”) is listed as “intermediate effects”. Also, at NRG1, the “shift of NRG1 mobility (NRG1 binding)” value was “shifted NRG1 better than De-N sulfated heparin but less than fully sulfated heparin”.
Regarding De-6O sulfated heparin, the “inhibition” value in experiment [2] is listed as “intermediate effects”. Besides, the “shift of NRG1 mobility (NRG1 binding)” value on NRG1 is “shifted NRG1 better than De-N sulfated heparin but less than fully sulfated heparin”.
In the case of De-N sulfated heparin, the “inhibition” value in experiment [2] is recorded as “little inhibition even at 100 μg/ml”. Moreover, the “effect on receptor phosphorylation at low concentration” value in experiment [2] (1 μg/ml) was “modest stimulatory effect”. Further, at NRG1, the “shift of NRG1 mobility (NRG1 binding)” value was “did not shift NRG1”.
With heparin, the “inhibition” value in experiment [2] is given as “inhibited by fully-sulfated heparin in a dose-dependent manner”. The “shift of NRG1 mobility (NRG1 binding)” value on NRG1 is “shift NRG1 in a dose-dependent manner”.
